Measurements: patent publication US10550105B2 (Ribon Therapeutics Inc., priority 2018, dated 2020)

Molecular target: PARP7 (Homo sapiens (Human), UniProt Q7Z3E1)
Assay: Enzymatic assay for inhibition of PARP7: TR-FRET displacement of biotinylated Probe A from the TIPARP active site
Assay type: binding
Conditions: Table A-1
Procedure, shortened: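 Titrated compounds compete with the biotinylated probe; after an additional 30 min incubation at 25° C, time-delayed fluorescence (90 μs) is measured. Inhibition curves use a Hill coefficient that normally floats but may be held at 1.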

Chain of PARP7 (Q7Z3E1 whole entry): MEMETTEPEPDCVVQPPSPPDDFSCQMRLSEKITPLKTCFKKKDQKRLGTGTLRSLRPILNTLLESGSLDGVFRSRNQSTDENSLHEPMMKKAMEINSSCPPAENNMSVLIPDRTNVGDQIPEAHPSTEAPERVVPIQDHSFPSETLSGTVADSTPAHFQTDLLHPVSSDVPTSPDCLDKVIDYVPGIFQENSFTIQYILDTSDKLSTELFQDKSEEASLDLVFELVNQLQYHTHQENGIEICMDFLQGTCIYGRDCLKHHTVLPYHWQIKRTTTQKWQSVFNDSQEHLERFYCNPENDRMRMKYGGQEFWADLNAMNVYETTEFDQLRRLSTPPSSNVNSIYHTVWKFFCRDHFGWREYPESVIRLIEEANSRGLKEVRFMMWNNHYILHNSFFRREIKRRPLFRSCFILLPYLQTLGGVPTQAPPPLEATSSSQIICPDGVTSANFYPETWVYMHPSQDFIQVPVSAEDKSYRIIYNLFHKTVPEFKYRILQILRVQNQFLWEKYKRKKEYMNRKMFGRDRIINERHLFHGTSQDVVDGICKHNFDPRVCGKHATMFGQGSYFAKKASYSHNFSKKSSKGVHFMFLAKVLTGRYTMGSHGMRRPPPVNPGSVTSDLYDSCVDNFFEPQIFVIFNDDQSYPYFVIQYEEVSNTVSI

Structure (SMILES)	IC50 [nM]
COc1ccnc2c1CN(c1cn[nH]c(=O)c1C(F)(F)F)C2 [Example 337, 5-(4-Methoxy-5,7-dihydro-6H-pyrrolo[3,4-b]pyridin-6-yl)-4-(trifluoromethyl)pyridazin-3(2H)-one]	< 100
C[C@H](CC(=O)N1CCN(c2ccc(C#N)cn2)CC1)OC[C@@H]1CCCN1c1cn[nH]c(=O)c1C(F)(F)F [Example 123A, 6-[4-[(3R)-3-[[(2S)-1-[6-oxo-5-(trifluoromethyl)-1,6-dihydropyridazin-4-yl]pyrrolidin-2-yl]methoxy]butanoyl]piperazin-1-yl]pyridine-3-carbonitrile]	< 100
N#Cc1ccc(N2CCC3(CCN(C(=O)CCOC[C@@H]4CCCN4c4cn[nH]c(=O)c4C(F)(F)F)C3)C2)nc1 (stereo partly drawn) [Example 111, 6-[7-(3-[[(2S)-1-[6-oxo-5-(trifluoromethyl)-1,6-dihydropyridazin-4-yl]pyrrolidin-2-yl]methoxy]propanoyl)-2,7-diazaspiro[4.4]nonan-2-yl]pyridine-3-carbonitrile]	100 to 1000
COc1cccc2c1CN(c1cn[nH]c(=O)c1C)C2 [Example 167, 5-(4-Methoxyisoindolin-2-yl)-4-methylpyridazin-3(2H)-one]	100 to 1000
COC[C@@H](COCCC(=O)N1CCN(c2ncc(Cl)cn2)CC1)Oc1cn[nH]c(=O)c1C(F)(F)F (single isomer, unassigned)	< 100
N#Cc1ccc(N2CCCC(NC(=O)CCOC[C@@H]3CCCN3c3cn[nH]c(=O)c3C(F)(F)F)C2)nc1 (stereo partly drawn) [Example 114, N-[1-(5-cyanopyridin-2-yl)piperidin-3-yl]-3-[[(2S)-1-[6-oxo-5-(trifluoromethyl)-1,6-dihydropyridazin-4-yl]pyrrolidin-2-yl]methoxy]propanamide]	≥ 1000
O=c1[nH]ncc(N2Cc3cccc(OC4CCNCC4)c3C2)c1Br [Example 172, 4-Bromo-5-(4-(piperidin-4-yloxy)isoindolin-2-yl)pyridazin-3(2H)-one]	100 to 1000
N#Cc1ccc(N2CC3(CN(C(=O)CCOC[C@@H]4CCCN4c4cn[nH]c(=O)c4C(F)(F)F)C3)C2)nc1 [Example 108, 6-[6-(3-[[(2S)-1-[6-oxo-5-(trifluoromethyl)-1,6-dihydropyridazin-4-yl]pyrrolidin-2-yl]methoxy]propanoyl)-2,6-diazaspiro [3.3]heptan-2-yl]pyridine-3-carbonitrile]	100 to 1000
O=C(c1cccc(OCC2c3ccccc3CN2c2cn[nH]c(=O)c2C(F)(F)F)c1)N1CCN(c2ccccn2)CC1 (stereo not drawn) [Example 341, 5-(1-((3-(4-(Pyridin-2-yl)piperazine-1-carbonyl)phenoxy)methyl)isoindolin-2-yl)-4-(trifluoromethyl)pyridazin-3(2H)-one]	< 100
N#Cc1ccc(N2CCN(C(=O)C[C@H](N)COC[C@@H]3CCCN3c3cn[nH]c(=O)c3C(F)(F)F)CC2)nc1 [Example 145B, 6-[4-[(3S)-3-amino-4-[[(2S)-1-[6-oxo-5-(trifluoromethyl)-1,6-dihydropyridazin-4-yl]pyrrolidin-2-yl]methoxy]butanoyl]piperazin-1-yl]pyridine-3-carbonitrile; formic acid]	< 100
CC(=O)N1CCC[C@H]2CN(c3cn[nH]c(=O)c3C(F)(F)F)C[C@H]21 [Example 143, 5-[(4aS,7aS)-1-acetyl-octahydro-1H-pyrrolo[3,4-b]pyridin-6-yl]-4-(trifluoromethyl)-2,3-dihydropyridazin-3-one]	≥ 1000
O=c1[nH]ncc(N2Cc3ccccc3C2CO)c1C(F)(F)F (stereo not drawn) [Example 235, 5-(1-(Hydroxymethyl)isoindolin-2-yl)-4-(trifluoromethyl)pyridazin-3(2H)-one]	≥ 1000
CN(Cc1ccncc1)Cc1cccc2c1CN(c1cn[nH]c(=O)c1C(F)(F)F)C2 [Example 328, 5-(4-((Methyl(pyridin-4-ylmethyl)amino)methyl)isoindolin-2-yl)-4-(trifluoromethyl)pyridazin-3(2H)-one]	< 100
O=C(c1cncc(OCC2c3ccccc3CN2c2cn[nH]c(=O)c2C(F)(F)F)c1)N1CCN(c2ccc(C(F)(F)F)cn2)CC1 (stereo not drawn) [Example 374, 4-(Trifluoromethyl)-5-(1-(((5-(4-(5-(trifluoromethyl)pyridin-2-yl)piperazine-1-carbonyl)pyridin-3-yl)oxy)methyl)isoindolin-2-yl)pyridazin-3(2H)-one]	< 100
O=C(c1cccc(OCC2c3ccccc3CN2c2cn[nH]c(=O)c2C(F)(F)F)c1)N1CCN(c2ccc(C(F)(F)F)cn2)CC1 (stereo not drawn) [Example 368, 4-(Trifluoromethyl)-5-(1-((3-(4-(5-(trifluoromethyl)pyridin-2-yl)piperazine-1-carbonyl)phenoxy)methyl)isoindolin-2-yl)pyridazin-3(2H)-one]	< 100

More lines, now with the values ahead:

IC50 [nM]	Structure (SMILES)
< 100	C[C@@H](COCCC(=O)N1CCC(Oc2ncc(C(F)(F)F)cn2)C1)Nc1cn[nH]c(=O)c1C(F)(F)F (stereo partly drawn) [Example 716, 5-(((2S)-1-(3-Oxo-3-(3-((5-(trifluoromethyl)pyrimidin-2-yl)oxy)pyrrolidin-1-yl)propoxy)propan-2-yl)amino)-4-(trifluoromethyl)pyridazin-3(2H)-one]
< 100	O=C(c1cncc(OC[C@@H]2c3ccccc3CN2c2cn[nH]c(=O)c2C(F)(F)F)c1)N1CCN(c2ccc(F)cn2)CC1 [Example 386, (5)-5-(1-(((5-(4-(5-Fluoropyridin-2-yl)piperazine-1-carbonyl)pyridin-3-yl)oxy)methyl)isoindolin-2-yl)-4-(trifluoromethyl)pyridazin-3(2H)-one]
< 100	C[C@@H](COCCC(=O)N1CCN(c2ncc(C#N)s2)CC1)Nc1cn[nH]c(=O)c1C(F)(F)F [Example 680, (S)-2-(4-(3-(2-((6-Oxo-5-(trifluoromethyl)-1,6-dihydropyridazin-4-yl)amino)propoxy)propanoyl)piperazin-1-yl)thiazole-5-carbonitrile]
< 100	CC[C@@H](COCCC(=O)N1CCN(c2ccc(C(F)(F)F)cn2)CC1)Nc1cn[nH]c(=O)c1C(F)(F)F [Example 587, 5-[[(2S)-1-(3-Oxo-3-[4-[5-(trifluoromethyl)pyridin-2-yl]piperazin-1-yl]propoxy)butan-2-yl]amino]-4-(trifluoromethyl)-2,3-dihydropyridazin-3-one]
< 100	O=C(c1cncc(OCC2c3ccccc3CN2c2cn[nH]c(=O)c2C(F)(F)F)c1)N1CCN(c2ncc(C(F)(F)F)cn2)CC1 (stereo not drawn) [Example 378, 4-(Trifluoromethyl)-5-(1-(((5-(4-(5-(trifluoromethyl)pyrimidin-2-yl)piperazine-1-carbonyl)pyridin-3-yl)oxy)methyl)isoindolin-2-yl)pyridazin-3(2H)-one]
≥ 1000	O=C(CCOC[C@@H](Nc1cn[nH]c(=O)c1C(F)(F)F)C1CCNCC1)N1CCN(c2ncc(C(F)(F)F)cn2)CC1 [Example 653, (S)-5-((2-(3-Oxo-3-(4-(5-(trifluoromethyl)pyrimidin-2-yl)piperazin-1-yl)propoxy)-1-(piperidin-4-yl)ethyl)amino)-4-(trifluoromethyl)pyridazin-3(2H)-one]
< 100	N#Cc1ccc(N2CCN(C(=O)CCOC[C@@H]3CCCN3c3cn[nH]c(=O)c3C(F)(F)F)CC2)cc1 [Example 462, (S)-4-(4-(3-((1-(6-Oxo-5-(trifluoromethyl)-1,6-dihydropyridazin-4-yl)pyrrolidin-2-yl)methoxy)propanoyl)piperazin-1-yl)benzonitrile]
100 to 1000	O=C(c1cncc(OC[C@H]2c3ccccc3CN2c2cn[nH]c(=O)c2C(F)(F)F)c1)N1CCN(c2ccc(C(F)(F)F)cn2)CC1 [Example 385, (R)-4-(Trifluoromethyl)-5-(1-(((5-(4-(5-(trifluoromethyl)pyridin-2-yl)piperazine-1-carbonyl)pyridin-3-yl)oxy)methyl)isoindolin-2-yl)pyridazin-3(2H)-one]
< 100	N#Cc1ccc(N2CCN(C(=O)CCOCCOc3cn[nH]c(=O)c3Cl)CC2)nc1 [Example 521, 6-[4-(3-[2-[(5-Chloro-6-oxo-1,6-dihydropyridazin-4-yl)oxy]ethoxy]propanoyl)piperazin-1-yl]pyridine-3-carbonitrile]
< 100	C[C@@H](CSCCC(=O)N1CCN(c2ncc(C(F)(F)F)cn2)CC1)Nc1cn[nH]c(=O)c1C(F)(F)F [Example 702, (S)-5-((1-((3-Oxo-3-(4-(5-(trifluoromethyl)pyrimidin-2-yl)piperazin-1-yl)propyl)thio)propan-2-yl)amino)-4-(trifluoromethyl)pyridazin-3(2H)-one]
< 100	CC(=O)N1CCN(C(=O)c2cccc(OC[C@@H]3c4ccccc4CN3c3cn[nH]c(=O)c3C(F)(F)F)c2)CC1 [Example 407, (S)-5-(1-((3-(4-Acetylpiperazine-1-carbonyl)phenoxy)methyl)isoindolin-2-yl)-4-(trifluoromethyl)pyridazin-3(2H)-one]
< 100	C[C@@H](COCCC(=O)N1CCN(c2ccc(C#N)cn2)CC1)Nc1cn[nH]c(=O)c1C(F)(F)F [Example 513A, (S)-6-(4-(3-(2-(6-Oxo-5-(trifluoromethyl)-1,6-dihydropyridazin-4-ylamino)propoxy)propanoyl)piperazin-1-yl)nicotinonitrile]
< 100	CN(CCOCCC(=O)N1CCN(c2ccc(C#N)cn2)CC1)c1cn[nH]c(=O)c1C(F)(F)F [Example 510, 6-[4-[3-(2-[Methyl[6-oxo-5-(trifluoromethyl)-1,6-dihydropyridazin-4-yl]amino]ethoxy)propanoyl]piperazin-1-yl]pyridine-3-carbonitrile]
≥ 1000	O=C(CCOC[C@H]1c2ccccc2CN1c1cn[nH]c(=O)c1C(F)(F)F)N1CCNCC1 [Example 418, (R)-5-(1-((3-Oxo-3-(piperazin-1-yl)propoxy)methyl)isoindolin-2-yl)-4-(trifluoromethyl)pyridazin-3(2H)-one 0.4 formic acid]
< 100	C[C@@H](CC(=O)N1CCN(c2ccc(C#N)cn2)CC1)OCCNc1cn[nH]c(=O)c1C(F)(F)F [Example 528A]
